Among the test systems are HOP-92 NSCLC; LOX IMVI melanoma; NCI-H522 lung; COLO 205 colon; SF-295 CNS; KM12 colon; MOLT-4 leukemia; RXF 393 renal; MCF7 breast; PC-3 prostate.
Holding throughout (experiment): growth of human tumour cells (NCI), 48 h

The record followed here is PubChem BioAssay (NCI).

Where “and” joins values, the source holds several entries; their conditions need not be identical. Equal values may be shown once.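 How tested: cells in 96-well plates exposed to compound for 48 hours at five concentrations. Abbreviation: GI50, concentration required for 50% inhibition of growth. TGI marks complete inhibition of growth.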

As for `Nc1nc(N)c(N=O)c(Nc2ccc(Br)cc2)n1`, the TGI was more than 100 µM with HOP-92 NSCLC; 66.5 µM with LOX IMVI melanoma; more than 100 µM in the assay on NCI-H522 lung; 38.8 µM in the assay with COLO 205 colon; more than 100 µM in the assay on SF-295 CNS; more than 100 µM with KM12 colon.
In the case of `CC(=O)OCC1OC(n2cc(I)c(=O)[nH]c2=O)C(OC(C)=O)C(OC(C)=O)C1OC(C)=O` (configuration not stated), the TGI in the assay on HOP-92 NSCLC, in the assay with LOX IMVI melanoma, in the assay on NCI-H522 lung, with COLO 205 colon, in the assay on MOLT-4 leukemia and in the assay with SF-295 CNS was more than 100 µM each time. For the same molecule, the TGI with RXF 393 renal and in the assay with KM12 colon was more than 100 µM throughout.
With `O=C(Nc1ccccc1F)c1cc2ccc(O)cc2oc1=Nc1ccccc1F`, the TGI was found to be 4.16 µM with LOX IMVI melanoma; 3.09 µM with NCI-H522 lung; 61.7 µM in the assay on COLO 205 colon; 6.11 µM in the assay on MOLT-4 leukemia; 8.48 µM in the assay with SF-295 CNS; 11.3 µM with MCF7 breast. Also, the TGI with PC-3 prostate was 7.61 µM; with KM12 colon it was 5.37 µM.
On to `O=C(O)c1cc(-c2ccc3c(O)c(O)ccc3c2)ccc1O`, for which the TGI with LOX IMVI melanoma is 34.9 µM; with NCI-H522 lung, more than 75 µM; in the assay with COLO 205 colon, more than 75 µM; with MOLT-4 leukemia, 33.2 µM; with SF-295 CNS, 29.1 µM; in the assay on MCF7 breast it was 25.1 µM. For the same molecule, the TGI in the assay with RXF 393 renal was 47.8 µM; with PC-3 prostate, more than 75 µM; in the assay on KM12 colon it was more than 75 µM.
Regarding `CCN1CCCC(NCc2c3ccccc3c(CNC3CCCN(CC)C3)c3ccccc23)C1` (configuration not stated), the TGI in the assay on HOP-92 NSCLC was found to be 38.6 µM; with LOX IMVI melanoma it was 22.3 µM; in the assay with NCI-H522 lung, 8.12 µM; in the assay with COLO 205 colon, 12.7 µM; in the assay on MOLT-4 leukemia, 14.8 µM; with SF-295 CNS, 14.7 µM. Moreover, the TGI in the assay with MCF7 breast was 15.2 µM; with RXF 393 renal, 11.8 µM; with KM12 colon, 31.9 µM.
In the case of `CC12CCC3C(CCC4CC(OC(=O)Cc5ccc(N(CCCl)CCCl)cc5)CCC43C)C1CCC(=O)N2` (configuration not stated), the TGI was 30.9 µM with HOP-92 NSCLC; 28.3 µM with NCI-H522 lung; 31.1 µM in the assay with COLO 205 colon; 24.4 µM in the assay with MOLT-4 leukemia; 30.3 µM in the assay with SF-295 CNS; 28 µM in the assay on RXF 393 renal. Further, the TGI in the assay on KM12 colon stood at 32.1 µM.
Take `CC(=O)O[C@H]1C(=O)[C@@]2(C)[C@H]([C@H](OC(=O)c3ccc(F)cc3)[C@]3(O)C[C@H](OC(=O)[C@H](O)[C@@H](NC(=O)c4ccccc4)c4ccccc4)C(C)=C1C3(C)C)[C@]1(OC(C)=O)CO[C@@H]1C[C@@H]2O`: the TGI was more than 25 µM in the assay on HOP-92 NSCLC; 5.56 µM with LOX IMVI melanoma; 0.585 µM with NCI-H522 lung; more than 25 µM in the assay with COLO 205 colon; 2.6 µM with MOLT-4 leukemia; more than 6.59 µM in the assay with SF-295 CNS. Moreover, the figures for the TGI in the assay with MCF7 breast, in the assay on RXF 393 renal and in the assay with KM12 colon were more than 25 µM, 0.902 µM and more than 25 µM, respectively.
For `COc1c(O)c2c3c(c(C)cc(O)c3c1O)C(=O)C(O)(C(C)(C)C(C)=O)C2=O` (configuration not stated), the TGI was more than 100 µM with HOP-92 NSCLC; more than 100 µM with LOX IMVI melanoma; more than 100 µM in the assay on NCI-H522 lung; more than 100 µM in the assay with COLO 205 colon; more than 100 µM in the assay on MOLT-4 leukemia; 71.2 µM and > 100 µM with SF-295 CNS. Further, the TGI with RXF 393 renal and with KM12 colon was more than 100 µM each time. Besides, the GI50 with LOX IMVI melanoma is 33 µM and 67.6 µM; in the assay on NCI-H522 lung, 49.7 µM and > 100 µM; with SF-295 CNS, 25.2 µM and > 100 µM.
`COC(=O)c1c2c(cc3c1CCC3)CCC2`: the TGI in the assay with LOX IMVI melanoma, with NCI-H522 lung, in the assay on COLO 205 colon, with MOLT-4 leukemia, in the assay on SF-295 CNS and in the assay on MCF7 breast was more than 100 µM throughout. The TGI in the assay on PC-3 prostate and in the assay with KM12 colon was more than 100 µM each time.
With `c1ccc2c(c1)c1c(n2CCOCCN2CCOCC2)CCCC1`, the TGI in the assay on HOP-92 NSCLC was 71.9 µM; with LOX IMVI melanoma, 63.6 µM; in the assay with MOLT-4 leukemia, 69.8 µM; with SF-295 CNS it was 50 µM; in the assay with MCF7 breast, more than 100 µM; in the assay with PC-3 prostate, more than 100 µM. In addition, in the assay on KM12 colon, the TGI was more than 100 µM.
With `CC(=O)c1cccn1/C=C(\OC(=O)OC(C)(C)C)c1ccc[nH]1`, the TGI in the assay on LOX IMVI melanoma, with NCI-H522 lung, in the assay on COLO 205 colon, in the assay with MOLT-4 leukemia, in the assay on SF-295 CNS and in the assay with MCF7 breast was more than 100 µM in each case. The TGI in the assay on RXF 393 renal, in the assay with PC-3 prostate and with KM12 colon was more than 100 µM each time.
In the case of `CCC1=CC2CN3Cn4c(c(COCc5c6n(c7ccccc57)CN5CC7C=C(CC)C5C6(C(=O)OC)C7)c5ccccc54)C(C(=O)OC)(C2)C13`, the TGI in the assay with LOX IMVI melanoma, in the assay with NCI-H522 lung, in the assay with COLO 205 colon, in the assay with MOLT-4 leukemia, in the assay on SF-295 CNS and in the assay with RXF 393 renal was more than 100 µM in each case. For the same molecule, in the assay with KM12 colon, the TGI is more than 100 µM.
Take `N=C(N)c1ccc(-c2ccc(-c3cccs3)s2)cc1`: the GI50 with HOP-92 NSCLC was 2.71 µM; with RXF 393 renal it was 13.9 µM; in the assay on PC-3 prostate, 1.62 µM. Moreover, the TGI in the assay with HOP-92 NSCLC amounted to 16 µM; in the assay with RXF 393 renal, 35.5 µM; in the assay on PC-3 prostate, 3.15 µM.
As to `O=[N+]([O-])c1ccc(/C=C/c2cc(-c3ccccc3)nc3ccc4ccccc4c23)cc1`, the TGI in the assay with LOX IMVI melanoma, with COLO 205 colon, with MOLT-4 leukemia, with SF-295 CNS, with MCF7 breast and in the assay with RXF 393 renal was more than 100 µM each time. Further, the TGI in the assay with PC-3 prostate and in the assay with KM12 colon was more than 100 µM throughout.
As for `CC1=NN(C(=O)CC(=O)Nc2ccccc2F)C(=O)C1N=Nc1ccccc1[N+](=O)[O-]` (configuration not stated), the TGI in the assay on NCI-H522 lung, in the assay on COLO 205 colon, in the assay with MOLT-4 leukemia, in the assay with SF-295 CNS, with RXF 393 renal and with KM12 colon was more than 100 µM throughout.
In the case of `N#CCc1nc(-c2ccccc2)n[nH]1`, the TGI in the assay on LOX IMVI melanoma, with NCI-H522 lung, in the assay with COLO 205 colon, with MOLT-4 leukemia, in the assay on SF-295 CNS and with MCF7 breast was more than 100 µM each time. Moreover, the TGI with RXF 393 renal, in the assay with PC-3 prostate and with KM12 colon was more than 100 µM in each case.
